Legend:
[1] = system: Mahoney strain of poliovirus type 1; assay type: cell-based; conditions: HeLa cells, 2 pfu/cell, 80 nM
eIF4Ac [2] = target: T1, eIF4Ac (Homo sapiens, UniProt P60842); assay: Crosslinking of oxidized 32P-cap labeled CAT mRNA to native eIF4F (RNA binding); conditions: 50 μM, 0.7 μg native eIF4F
Experimental: (§1) FIG. 7. Effects of hippuristanol on ATP hydrolysis, ATP binding, and RNA binding activities of eIF4A. A. Hippuristanol inhibits eIF4AIf RNA-dependent ATPase activity. The rate of ATP hydrolysis as a function of hippuristanol concentration is plotted relative to the rate obtained in the presence of vehicle (0.5% DMSO). ATP hydrolysis was measured in the presence of 2.5 μM poly (U) and monitored by thin layer chromatography. […] Samples were resolved by SDS-PAGE and subjected to autoradiography. C. The RNA binding activity of eIF4AIf is inhibited by hippuristanol. Oxidized ^32P-cap labeled CAT mRNA was incubated with recombinant eIF4AIf in the absence (lane 2) or presence of ATP (lanes 1, 3-6), 0.6 mM m^7GDP (lane 3), 0.6 mM GDP (lane 4), or 50 μM hippuristanol (lane 6). Following treatment with RNase A, samples were resolved by SDS-PAGE and subjected to autoradiography. The asterisk denotes the position of migration of a ˜30 kDa contaminant in the recombinant eIF4AIf preparation used as an internal loading reference. D. The RNA binding activity of eIF4Ac is inhibited by hippuristanol. Oxidized ^32P-cap labeled CAT mRNA was incubated with 0.7 μg of native eIF4F in the absence (lane 1) or presence (lane 2) of 50 μM hippuristanol. […]
Ribosome Binding and mRNA Crosslinking. […] Fractions of 500 μl were collected and radioactivity was determined by scintillation counting. […]

eIF4Ac and eIF4B = target: T2, eIF4Ac and eIF4B (Homo sapiens, UniProt P60842); assay: Chemical crosslinking of initiation factors to 32P cap-labeled mRNA; assay type: binding; conditions: 50 μM, in presence of ATP
T2 construct: Chemical crosslinking of initiation factor preparations to ^32P cap-labeled oxidized CAT mRNA
T2 sequence (P60842 whole entry): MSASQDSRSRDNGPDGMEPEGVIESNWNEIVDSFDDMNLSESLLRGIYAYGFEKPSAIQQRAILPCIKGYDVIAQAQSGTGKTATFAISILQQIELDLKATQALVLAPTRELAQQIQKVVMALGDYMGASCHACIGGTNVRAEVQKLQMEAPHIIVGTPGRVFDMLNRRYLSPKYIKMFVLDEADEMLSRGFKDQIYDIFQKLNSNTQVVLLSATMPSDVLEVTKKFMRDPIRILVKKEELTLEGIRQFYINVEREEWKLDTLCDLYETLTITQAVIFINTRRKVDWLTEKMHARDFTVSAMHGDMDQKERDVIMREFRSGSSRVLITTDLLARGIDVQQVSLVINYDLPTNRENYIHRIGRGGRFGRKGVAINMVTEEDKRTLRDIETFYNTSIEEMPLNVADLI
T2 sequence (Q04637 whole entry partner): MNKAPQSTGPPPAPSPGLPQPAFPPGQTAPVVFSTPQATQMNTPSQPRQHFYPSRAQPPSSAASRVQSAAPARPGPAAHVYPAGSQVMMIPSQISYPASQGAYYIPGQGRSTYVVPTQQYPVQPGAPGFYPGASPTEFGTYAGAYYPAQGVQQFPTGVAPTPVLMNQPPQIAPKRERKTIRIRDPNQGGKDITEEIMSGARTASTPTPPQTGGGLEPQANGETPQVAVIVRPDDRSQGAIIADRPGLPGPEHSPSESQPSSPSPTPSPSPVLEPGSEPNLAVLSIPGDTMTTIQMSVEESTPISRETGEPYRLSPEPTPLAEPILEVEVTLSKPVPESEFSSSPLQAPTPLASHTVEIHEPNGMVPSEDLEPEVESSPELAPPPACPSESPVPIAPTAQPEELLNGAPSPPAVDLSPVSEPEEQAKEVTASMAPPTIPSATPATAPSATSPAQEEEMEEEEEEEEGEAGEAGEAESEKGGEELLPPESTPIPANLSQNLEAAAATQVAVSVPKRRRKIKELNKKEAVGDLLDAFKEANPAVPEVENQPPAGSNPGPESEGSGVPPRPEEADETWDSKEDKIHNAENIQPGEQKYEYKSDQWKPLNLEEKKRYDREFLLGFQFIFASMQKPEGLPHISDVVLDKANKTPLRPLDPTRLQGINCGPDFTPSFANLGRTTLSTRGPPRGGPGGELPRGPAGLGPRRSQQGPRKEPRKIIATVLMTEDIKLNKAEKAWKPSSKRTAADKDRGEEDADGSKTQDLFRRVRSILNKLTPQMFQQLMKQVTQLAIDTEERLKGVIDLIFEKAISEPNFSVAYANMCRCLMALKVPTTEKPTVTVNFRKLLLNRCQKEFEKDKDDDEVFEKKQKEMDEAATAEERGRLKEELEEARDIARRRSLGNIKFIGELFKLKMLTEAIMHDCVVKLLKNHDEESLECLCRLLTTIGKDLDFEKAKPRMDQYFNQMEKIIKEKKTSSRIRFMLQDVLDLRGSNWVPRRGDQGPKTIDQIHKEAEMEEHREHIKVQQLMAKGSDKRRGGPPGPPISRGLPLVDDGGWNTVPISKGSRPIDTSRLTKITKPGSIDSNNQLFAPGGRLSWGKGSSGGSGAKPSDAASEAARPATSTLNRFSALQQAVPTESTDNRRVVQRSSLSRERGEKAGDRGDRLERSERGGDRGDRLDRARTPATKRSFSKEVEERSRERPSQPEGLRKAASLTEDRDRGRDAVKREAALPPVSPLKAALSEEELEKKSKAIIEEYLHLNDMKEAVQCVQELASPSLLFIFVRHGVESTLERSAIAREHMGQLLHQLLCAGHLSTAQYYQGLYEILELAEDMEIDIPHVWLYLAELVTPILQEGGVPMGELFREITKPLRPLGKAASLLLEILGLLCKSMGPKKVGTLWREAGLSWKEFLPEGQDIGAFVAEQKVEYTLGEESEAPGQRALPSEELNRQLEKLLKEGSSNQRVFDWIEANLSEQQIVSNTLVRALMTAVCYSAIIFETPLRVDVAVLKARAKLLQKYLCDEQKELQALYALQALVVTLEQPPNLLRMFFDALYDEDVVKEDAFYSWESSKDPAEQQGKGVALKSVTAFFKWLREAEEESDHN
T2 sequence (P06730 whole entry partner): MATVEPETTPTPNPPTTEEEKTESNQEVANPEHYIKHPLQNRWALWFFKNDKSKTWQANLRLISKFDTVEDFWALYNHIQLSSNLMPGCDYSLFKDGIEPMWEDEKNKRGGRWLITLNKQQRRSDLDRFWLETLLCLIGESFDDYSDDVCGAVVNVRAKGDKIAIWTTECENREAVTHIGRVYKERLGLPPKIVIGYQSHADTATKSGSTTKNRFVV
Experimental: FIG. 6. Hippuristanol inhibits translation initiation. A. Hippuristanol inhibits 80S complex formation. ^32P-labeled CAT mRNA was incubated in rabbit reticulocyte lysate with cycloheximide (CHX) in the presence or absence of 50 μM hippuristanol. Complexes were resolved on glycerol gradients. Total counts recovered from each gradient and the percent mRNA bound in 80S complexes were: CAT mRNA/CHX [43,498 cpm, 22% binding] and CAT mRNA/CHX+Hipp. [45,279 cpm, 5.7% binding]. B. Hippuristanol inhibits crosslinking of eIF4Ac and eIF4B to capped mRNA. Initiation factors were chemically crosslinked to ^32P cap-labeled mRNA in the absence (lane 2) or presence of ATP (lanes 1, 3-6), 0.6 mM m^7GDP (lane 3), 0.6 mM GDP (lane 4), or 50 μM hippuristanol (lane 6). Following nuclease digestion, samples were resolved by SDS-PAGE and the gel subjected to autoradiography.
Ribosome Binding and mRNA Crosslinking. Ribosome binding assays were performed by incubating ^32P-labelled CAT mRNA in rabbit reticulocyte lysate or wheat germ extracts in the presence of: 600 μM cycloheximide (CHX), 1 mM GMP-PNP, and/or 50 μM hippuristanol or vehicle for 10 min (33). […] Fractions of 500 μl were collected and radioactivity was determined by scintillation counting. […]

eIF4AIf [3] = target: T3, eIF4AIf (Mus musculus, UniProt P60843); assay: Helicase (unwinding) assay with RNA-1/RNA-11 duplex; assay type: biochemical, murine; conditions: 50 μM
T3 construct: inferred only from the Ni-NTA purification; made in house; host or cells: Escherichia coli BL21 (DE3) codon+
T3 sequence (P60843 whole entry): as the sequence (P60842 whole entry) above
Experimental: (§2) FIG. 8. Selective inhibition of eIF4A activity by hippuristanol. A. Hippuristanol inhibits eIF4AIf-mediated helicase activity. Unwinding reactions were performed with RNA-1/RNA-11 duplex and recombinant eIF4AIf or Ded1p. The presence of 50 μM hippuristanol in the reaction is indicated above the panel. […] Double-stranded RNA duplex and single-stranded RNA molecules are schematically represented to the left of the panel. […] In vitro splicing reactions were performed with the AdML pre-mRNAs as previously described (48). AdML pre-mRNA was incubated with nuclear extracts in the presence of increasing amounts of hippuristanol (2 μM [lane4], 10 μM [lane 5] and 50 μM [lane 6]). Reaction products were resolved on 15% polyacrylamide/8M urea gels and subjected to autoradiography. The position of migration of the pre-mRNA and spliced product is denoted to the right. C. Rescue of hippuristanol-induced inhibition with recombinant eIF4AIf. […] A graphical representation from three experiments is provided below. Translational efficiency was calculated relative to luciferase values obtained from control translations containing vehicle (0.5% DMSO).
(§3) Recombinant eIF4AI Purification and Assays. […] Quantifications were performed on a Fujix BAS2000 phosphoimager with a Fuji imaging screen. […]

[4] = system: in vitro splicing reactions; assay: In vitro splicing of AdML pre-mRNA in nuclear extracts; assay type: biochemical; conditions: 2 μM, 10 μM and 50 μM
Experimental: as §2

eIF4AIf [5] = target: T3, eIF4AIf; assay: UV crosslinking of alpha-32P-ATP to recombinant eIF4AIf; assay type: binding, murine; conditions: 50 μM
Experimental: as §1, §3

eIF4Ac [6] = target: T1, eIF4Ac; assay: UV crosslinking of alpha-32P-ATP to native eIF4F; assay type: binding; conditions: 50 μM
Experimental: as §1, §3

T1 sequence (P60842 whole entry): as above
T1 sequence (P06730 whole entry partner): as the sequence (P06730 whole entry partner) above
T1 sequence (Q04637 whole entry partner): as the sequence (Q04637 whole entry partner) above

C[C@H]1C[C@@]2(O[C@H]3C[C@H]4[C@@H]5CC[C@H]6C[C@H](O)CC[C@]6(C)[C@H]5[C@@H](O)C[C@]4(C)[C@H]3[C@@]2(C)O)OC1(C)C [Hippuristanol, hippuristanol]
eIF4GII cleavage following poliovirus infection [1]: delays
onset of poliovirus proteins during infection [1]: delays
RNA binding activity of eIF4Ac (eIF4Ac [2]): inhibited
crosslinking of eIF4Ac and eIF4B to capped mRNA (eIF4Ac and eIF4B): inhibits
eIF4AIf-mediated helicase activity (eIF4AIf [3]): inhibits
in vitro splicing reactions [4]: does not inhibit
ATP crosslinking to eIF4AIf (eIF4AIf [5]): does not affect
ATP crosslinking to eIF4Ac (eIF4Ac [6]): does not affect

Source: US8008346B2, “Chemotherapeutic agents for inhibition of protein translation” (The Royal University for the Advancement of Learning/McGill …, priority 2006, dated 2011)
